Measured values published in patent publication US20240317792A1, “CYCLIC DINUCLEOTIDE METAL COMPOUND, AND PREPARATION AND APPLICATION THEREOF” (HANGZHOU XINGAO BIOTECHNOLOGY CO., LTD., priority 2022, published 2024).

How the values were obtained:
[1] = test system: ICR mice with ischemic cerebrovascular injury; assay: MCAO ischemic cerebrovascular injury model, Zea longa behavioral score; format: in vivo; design: key: Zea longa: 0 = no neurological deficit, 4 = no spontaneous walking; conditions: 10 mg/kg intraperitoneal, Zea longa 5-point score
Experimental: Experimental animals: healthy male Institute of Cancer Research (ICR) mice, weighing 18-20 grams, purchased from Shanghai SLAC Laboratory Animal Co. Ltd, with quality certificate No. (SCXK (Shanghai) 2007-0005), and kept in clean animal houses.
Mouse model: an ischemic cerebrovascular injury model was prepared by a middle cerebral artery occlusion (MCAO) method to verify therapeutic effect of the cyclic dinucleotide metal compounds on ischemic cerebrovascular diseases in the experimental animals.
Experimental method: the ICR mice were anesthetized with 10 wt. % of chloral hydrate by intraperitoneal injection, a mid-cervical incision was made to isolate and ligate a proximal segment, a carotid artery and a branch vessel of a right common carotid artery. A right internal carotid artery was isolated, a pterygoid artery was isolated down along the right internal carotid artery followed by root ligation. A wire was prepared on the proximal segment, and an arterial clip was placed on a distal segment. An incision was made at a branch of the right common carotid artery, and a nylon wire was tied in. A monofilament entered the internal carotid artery, a cranium to an anterior cerebral artery to block all sources of blood flow in a middle cerebral artery. The arterial clip was removed, and the wire prepared on the proximal segment was tied in followed by skin suture. The experimental animals were subjected to cage culture after operation. 2 h after the ischemia, the experimental animals were subjected to abdominal administration by injection, and the nylon wire was removed for reperfusion. 8 h after the reperfusion, the experimental animals were subjected to re-administration. After the operation, behavioral score was performed using a single-blind method with reference to the Zea longa 5-point scoring system, which was shown as follows: 0 point, normal performance with no neurological deficits; 1 point, contralateral forepaws could not fully extend; 2 points, circling to the opposite side when walking; 3 points, falling to the opposite side; 4 points, no spontaneous walking and loss of consciousness.
In the experiment, the ICR mice were divided into 7 groups (10 mice in each group). The 7 groups were listed as follows: A: AD model group, as a negative control group (administration: normal saline); B: cGAMP group, as a positive control group (administration: cyclic dinucleotide); C: [Li2(cGAMP)] group (administration: lithium cyclic dinucleotide prepared in Example 1); D: [Mg(cGAMP)] group (administration: magnesium cyclic dinucleotide prepared in Example 2); E: [Zn(cGAMP)] group (administration: zinc cyclic dinucleotide prepared in Example 5); F: [Mn(cGAMP)] group (administration: manganese cyclic dinucleotide prepared in Example 3); G: [Fe(cGAMP)] group (administration: ferrous cyclic dinucleotide prepared in Example 4); where a preparation method for administration in groups C-G were as follows. Powders prepared in the groups C-G were prepared to solutions of required concentration with normal saline. The administration dosage of every group was 10 mg/kg. And the ICR mice were administered by intraperitoneal injection. The ICR mice were administered once after 2 h of ischemia, then the nylon wire was removed for reperfusion. 8 h after the reperfusion, the ICR mice were administered once. After 24 h, the ICR mice were administered once a day for 7 consecutive days.

IRI mice (male SD mice) = assay: Cerebral ischemia-reperfusion injury (IRI) model, TTC dyeing; format: in vivo; conditions: 2 h ischemia, 24 h reperfusion; caudal vein injection 5 mg/kg (Edaravone 6 mg/kg) after 30 min ischemia
Experimental: Experimental animals: healthy male mice, weighing 280-300 grams, purchased from Shanghai SLAC Laboratory Animal Co. Ltd, with quality certificate No. (SCXK (Shanghai) 2007-0005), and kept in clean animal houses.
Establishment of a mouse cerebral ischemia model of mice and experimental method: 280-300 grams of male […] mice were selected for experiments. The male SD mice were subjected to fasting without water deprivation for 12 h before operation followed by weighing, numbering and random grouping. The male SD mice were anesthetized by intraperitoneal injection of 10 wt. % chloral hydrate at a dosage of 0.3 mL/100 g. After the male SD mice had no pain reflexes, they were subjected to neck skin preparation followed by being fixed on a dissecting table in supine position. After neck skins were disinfected with sterilized cotton balls, about 1 cm of the neck skins were cut in mid-cervical to expose subcutaneous tissues, and subcutaneous fat and the fascia were bluntly plucked with curved tweezers to expose neck muscle groups. The common carotid arteries and their upwardly internal and external carotid branches were visualized by opening the digastric muscle. The external, internal, and common carotid arteries were carefully dissected, and a thin wire was threaded under each of the three arteries, and homemade plastic spacers were placed under the common carotid arteries. The external carotid arteries and proximal ends of the common carotid arteries were ligated. After the internal common carotid arteries were clamped by arterial clips, the common carotid arteries were stuck into with homemade curved hooks followed by picking up and leading in monofilaments. The spacers were removed, and the monofilaments were gently pushed into the internal common carotid arteries and craniums. […] At this time, blood supplies of the middle cerebral arteries from the anterior cerebral arteries were blocked. Thin wires under the internal carotid arteries were ligated to secure the monofilaments to prevent the monofilaments from retreating. Excess thin wires were cut, penicillin was applied to wounds to prevent infection. The male SD mice were sutured and placed under a warm lamp to keep warm. Timing was performed when blood flows of the middle cerebral arteries were blocked by the monofilaments. After 2 hours, the monofilaments were gently pulled out and the black marks were seen, then reperfusion can be achieved.
Triphenyl tetrazolium chloride (TTC) dyeing: After being injured by 2 h cerebral ischemia and 24 h reperfusion, the male SD mice were anesthetized with 0.3 mL/100 g dosage of 10 wt. % of chloral hydrate by intraperitoneal injection and subjected to abdominal aorta bleeding to reduce influence of blood in brains. Then whole heads of the male SD mice were removed immediately after decapitating, and washed with normal saline followed by being promptly put into a −20° C. refrigerator to freeze for 20 min. Frozen brains were collected and subjected to coronal sections, each 2 mm of thickness, by a blade. Then the coronal sections were subjected to dark dyeing in a 2 wt. % of TTC solution for 20 min and fixing in a 4 wt. % of polyformaldehyde solution for 6 h followed by photographing. Then, Photoshop software was used to define area and calculate, and a formula was represented as a percentage of cerebral ischemic area=a total area of white area/a total area of ischemic hemisphere×100%.
Drug preparation and experimental grouping: Edaravone was used as a positive control drug, and an Edaravone injection was 30 mg/20 mL. A single dosage for each of the male SD mice was 0.4 mL/100 g, that is, 6 mg/kg. The cyclic dinucleotide metal compounds prepared in Examples 1-5 were prepared into […] injection drugs with the normal saline. Each of the male SD mice was subjected to caudal vein injection with 0.4 mL/100 g dosage of drugs, that is, 5 mg/kg. The male SD mice were divided into 8 groups (10 mice in each group). […]

| SMILES | Score (7 h after operation) [1] | Score (24 h after operation) [1] | Average value of percentage of cerebral ischemic area (IRI mice (male SD mice)) [%] |
| --- | --- | --- | --- |
| Nc1nc2c(ncn2C2OC3COP(=O)([O-])OC4C(COP(=O)([O-])OC2C3O)OC(n2cnc3c(N)ncnc32)C4O)c(=O)[nH]1.[Fe+2] (stereo not drawn) [[Fe(cGAMP)], ferrous cyclic dinucleotide] | 1.41 ± 0.29 | 1.67 ± 0.35 | 26.78 |
| Nc1nc2c(ncn2[C@@H]2O[C@@H]3COP(=O)([O-])O[C@H]4[C@@H](O)[C@H](n5cnc6c(N)ncnc65)O[C@@H]4COP(=O)([O-])O[C@@H]2[C@@H]3O)c(=O)[nH]1.[Li+].[Li+] [[Li2(cGAMP)], lithium cyclic dinucleotide] | 1.49 ± 0.26 | 1.82 ± 0.19 | 25.25 |
| Nc1nc2c(ncn2[C@@H]2O[C@@H]3COP(=O)([O-])O[C@H]4[C@@H](O)[C@H](n5cnc6c(N)ncnc65)O[C@@H]4COP(=O)([O-])O[C@@H]2[C@@H]3O)c(=O)[nH]1.[Mg+2] [[Mg(cGAMP)], magnesium cyclic dinucleotide] | 1.09 ± 0.18 | 1.18 ± 0.24 | 18.16 |
| Nc1nc2c(ncn2C2OC3COP(=O)([O-])OC4C(COP(=O)([O-])OC2C3O)OC(n2cnc3c(N)ncnc32)C4O)c(=O)[nH]1.[Mn+2] (stereo not drawn) [[Mn(cGAMP)], manganese cyclic dinucleotide] | 1.38 ± 0.27 | 1.62 ± 0.39 | 25.56 |
| Nc1nc2c(ncn2[C@@H]2O[C@@H]3COP(=O)([O-])O[C@H]4[C@@H](O)[C@H](n5cnc6c(N)ncnc65)O[C@@H]4COP(=O)([O-])O[C@@H]2[C@@H]3O)c(=O)[nH]1.[Zn+2] [[Zn(cGAMP)], zinc cyclic dinucleotide] | 1.31 ± 0.15 | 1.57 ± 0.38 | 23.52 |
| Nc1nc2c(ncn2[C@@H]2O[C@@H]3COP(=O)(O)O[C@H]4[C@@H](O)[C@H](n5cnc6c(N)ncnc65)O[C@@H]4COP(=O)(O)O[C@@H]2[C@@H]3O)c(=O)[nH]1 [cGAMP, 2′3′-cGAMP, reference compound] | 1.67 ± 0.41 | 2.15 ± 0.32 | 26.86 |
